Experimental data taken from PubChem BioAssay AID1259407 (Chemical Carcinogenesis Research Information System (CCRIS), 2018).
Active and inactive are the calls of the source. The rule behind the calls is not given here.

Test system: CCRIS mutagenicity, Ames/micronucleus/aberration tests
Assay: CCRIS mutagenicity studies
[1] = Test System: AMES SALMONELLA TYPHIMURIUM, Strain/Indicator: TA98, Metabolic Activation: NONE, Method: STANDARD PLATE
[2] = Test System: AMES SALMONELLA TYPHIMURIUM, Strain/Indicator: TA100, Metabolic Activation: NONE, Method: STANDARD PLATE

O=[N+]([O-])c1ccc2c(c1)cc([N+](=O)[O-])c1ccccc12
mutagenic call (Test System: AMES SALMONELLA TYPHIMURIUM, Strain/Indicator: TA98(1,8-DNP6), Metabolic Activation: NONE, Method: STANDARD PLATE): active; positive
mutagenic call (Test System: AMES SALMONELLA TYPHIMURIUM, Strain/Indicator: TA98(NR), Metabolic Activation: NONE, Method: STANDARD PLATE): active; positive
mutagenic call [1]: active; positive
mutagenic call [2]: active; positive
mutagenic call (Test System: AMES SALMONELLA TYPHIMURIUM, Strain/Indicator: YG1021, Metabolic Activation: NONE, Method: STANDARD PLATE): active; positive
mutagenic call (Test System: AMES SALMONELLA TYPHIMURIUM, Strain/Indicator: YG1024, Metabolic Activation: NONE, Method: STANDARD PLATE): active; positive
mutagenic call (Test System: AMES SALMONELLA TYPHIMURIUM, Strain/Indicator: YG1026, Metabolic Activation: NONE, Method: STANDARD PLATE): active; positive
mutagenic call (Test System: AMES SALMONELLA TYPHIMURIUM, Strain/Indicator: YG1029, Metabolic Activation: NONE, Method: STANDARD PLATE): active; positive

Cc1ccc(N)cc1[N+](=O)[O-]
mutagenic call (Test System: AMES SALMONELLA TYPHIMURIUM, Strain/Indicator: TA98, Metabolic Activation: NONE, Method: SUSPENSION/PLATE): inactive; negative
mutagenic call (Test System: AMES SALMONELLA TYPHIMURIUM, Strain/Indicator: TA98, Metabolic Activation: RAT, LIVER, S-9, KANECHLOR 500, Method: PREINCUBATION): active; positive
mutagenic call (Test System: AMES SALMONELLA TYPHIMURIUM, Strain/Indicator: TA98, Metabolic Activation: RAT, LIVER, S-9, PCB, Method: PREINCUBATION): inactive; negative
mutagenic call (Test System: AMES SALMONELLA TYPHIMURIUM, Strain/Indicator: TA98, Metabolic Activation: RAT, LIVER, S-9, PHENOBARBITAL AND 5,6-BENZOFLAVONE, Method: SUSPENSION/PLATE): inactive; negative
mutagenic call (Test System: AMES SALMONELLA TYPHIMURIUM, Strain/Indicator: TA100, Metabolic Activation: NONE, Method: PREINCUBATION): active; positive
mutagenic call (Test System: AMES SALMONELLA TYPHIMURIUM, Strain/Indicator: TA100, Metabolic Activation: NONE, Method: SUSPENSION/PLATE): inactive; negative
mutagenic call (Test System: AMES SALMONELLA TYPHIMURIUM, Strain/Indicator: TA100, Metabolic Activation: RAT, LIVER, S-9, KANECHLOR 500, Method: PREINCUBATION): active; positive
mutagenic call (Test System: AMES SALMONELLA TYPHIMURIUM, Strain/Indicator: TA100, Metabolic Activation: RAT, LIVER, S-9, PHENOBARBITAL AND 5,6-BENZOFLAVONE, Method: SUSPENSION/PLATE): inactive; negative

Cc1cccc2c1cc1c3c(cccc32)-c2ccccc2-1
mutagenic call (Test System: AMES SALMONELLA TYPHIMURIUM, Strain/Indicator: TA100, Metabolic Activation: RAT, LIVER, S-9, AROCLOR 1254): active; positive

C/C=C(/C(=C/C)c1ccc(O)cc1)c1ccc(O)cc1
mutagenic call (End Point: IN VITRO CHROMOSOMAL ABERRATIONS, Test System: CHINESE HAMSTER CELL DON (22;XY), Metabolic Activation: NONE): active; positive (ploidy changes)
mutagenic call [1]: inactive; negative
mutagenic call (Test System: AMES SALMONELLA TYPHIMURIUM, Strain/Indicator: TA98, Metabolic Activation: RAT, LIVER, S-9, Method: STANDARD PLATE): inactive; negative
mutagenic call [2]: inactive; negative; toxicity at 100 ug/plate
mutagenic call (Test System: AMES SALMONELLA TYPHIMURIUM, Strain/Indicator: TA100, Metabolic Activation: RAT, LIVER, S-9, Method: STANDARD PLATE): inactive; negative; toxicity at 100 ug/plate
mutagenic call (Test System: AMES SALMONELLA TYPHIMURIUM, Strain/Indicator: TA1535, Metabolic Activation: NONE, Method: STANDARD PLATE): inactive; negative; toxicity at 50 ug/plate
mutagenic call (Test System: AMES SALMONELLA TYPHIMURIUM, Strain/Indicator: TA1535, Metabolic Activation: RAT, LIVER, S-9, Method: STANDARD PLATE): inactive; negative; toxicity at 100 ug/plate
mutagenic call (Test System: AMES SALMONELLA TYPHIMURIUM, Strain/Indicator: TA1537, Metabolic Activation: NONE, Method: STANDARD PLATE): inactive; negative
mutagenic call (Test System: AMES SALMONELLA TYPHIMURIUM, Strain/Indicator: TA1537, Metabolic Activation: RAT, LIVER, S-9, Method: STANDARD PLATE): inactive; negative
mutagenic call (Test System: AMES SALMONELLA TYPHIMURIUM, Strain/Indicator: TA1538, Metabolic Activation: NONE, Method: STANDARD PLATE): inactive; negative
mutagenic call (Test System: AMES SALMONELLA TYPHIMURIUM, Strain/Indicator: TA1538, Metabolic Activation: RAT, LIVER, S-9, Method: STANDARD PLATE): inactive; negative; toxicity at 100 ug/plate

CC(O)c1cc2ccc3cccc4ccc(c1)c2c34 (configuration not stated)
mutagenic call (Test System: AMES SALMONELLA TYPHIMURIUM, Strain/Indicator: TA98, Metabolic Activation: HUMAN, LIVER, CYTOSOL, PAPS, Method: PREINCUBATION): active; positive

Cc1ccc2nc3c(c4c(c5ccccc53)O4)c(C)c2c1
mutagenic call [2]: active; positive
mutagenic call (Test System: AMES SALMONELLA TYPHIMURIUM, Strain/Indicator: TA100, Metabolic Activation: RAT, LIVER, S-9, AROCLOR 1254, Method: STANDARD PLATE): inactive; negative

Cc1ccc2cc3c(ccc4ccccc43)c3c2c1C(O)C3 (configuration not stated)
mutagenic call (Test System: CHINESE HAMSTER V-79, Strain/Indicator: V-79/8-AZAGUANINE, Metabolic Activation: RAT, LIVER, S-9, AROCLOR 1254, Method: STANDARD PLATE): active; positive
